In article PMC6934184, “Selective DNA-PKcs inhibition extends the therapeutic index of localized radiotherapy and chemotherapy” (The Journal of Clinical Investigation, 2019):

Assays:
A549 cells = experiment: γH2AX and 53BP1 foci after 10 Gy; assay type: cell-based, human; details: 5 μM, 5 hours after irradiation
Protocol: (§1) Cell line γH2AX and 53BP1 foci immunofluorescence and quantitation
(§2) Cells grown on coverslips or in 96-well plates were treated with 1 or 5 µM NU5455 or DMSO 1 hour prior to irradiation (0, 2.5 or 10 Gy) using an RS 320 X-ray Research System (Gulmay Medical). At set timepoints (15 or 30 minutes, or 1, 4, 5, 6, or 24 hours post-irradiation), cells were washed and fixed in methanol or 3% paraformaldehyde (PFA). Cells were blocked and permeabilized in 1% (v/v) goat serum/1% (w/v) BSA/0.1% (v/v) Triton X100 or 0.1% (v/v) Triton X100 containing 10% (w/v) dried milk powder and 2% (w/v) bovine serum albumin, followed by incubation with antibodies against γH2AX (JBW301, Millipore #05-636) and/or 53BP1 (Cell Signaling #4937). Cells were then washed and incubated with Alexa Fluor 488 goat anti-mouse and/or Alexa Fluor 568 goat anti -rabbit antibodies (A11001 or A11011 respectively, Invitrogen). In A549 and Calu-6, cells were Hoechst stained (5 µg/ml), and the average numbers of γH2AX and 53BP1 foci per cell were quantified from 400 nuclei per sample using an In Cell analyzer 1000 (GE Healthcare). For MCF7 cells, coverslips were mounted using Vectashield mounting medium with DAPI (Vector Labs) and imaged using a Leica TCS SPE confocal fluorescence microscope. Total fluorescence intensity was determined using ImagePro Plus 5.0 software (Media Cybernetics).
(§3) Clonogenic survival assays […]

Calu-6 cells = experiment: γH2AX and 53BP1 foci after 10 Gy; assay type: cell-based, human; details: 5 μM, 5 hours after irradiation
Protocol: as §1, §2, §3

CN(C(=O)CN1CCOCC1)c1ccc2sc3c(-c4cccc5c(=O)cc(N6CC7CCC(C6)O7)oc45)cccc3c2c1 [NU5455]
number of colocalized γH2AX and 53BP1 foci (A549 cells): significant increase | number of colocalized γH2AX and 53BP1 foci (Calu-6 cells): significant increase
